Experimental data from the NIST ThermoML archive (doi:10.1021/je060271a).

Settings: 343.15 K, Liquid, Vibrating tube method

CCCCCCC(=O)OCC(COC(=O)CCCCCC)(COC(=O)CCCCCC)COC(=O)CCCCCC [pentaerythritol tetraheptanoate]
Settings | mass density [kg/m3]
476.1 kPa | 940.9
482 kPa | 941
488.1 kPa | 940.8
495.4 kPa | 940.9
502 kPa | 940.9
508.7 kPa | 940.9
517.2 kPa | 941
524.5 kPa | 941
532 kPa | 941.1
540.9 kPa | 940.9
548.4 kPa | 941
556.3 kPa | 941.1
566.3 kPa | 941.1
574.9 kPa | 941
583.8 kPa | 940.9
594.9 kPa | 941
603.8 kPa | 941
613.5 kPa | 941.1
625.7 kPa | 941.1
635.8 kPa | 941.1
646.5 kPa | 941
659.6 kPa | 940.9
671.2 kPa | 941.2
682.7 kPa | 941.2
697.1 kPa | 941.1
710.1 kPa | 941.2
724 kPa | 941.1
738.3 kPa | 941
752.5 kPa | 941.1
767.1 kPa | 941.2
785.4 kPa | 941.2
801.2 kPa | 941.1
817.7 kPa | 941.3
834.7 kPa | 941.2
856.1 kPa | 941.1
874 kPa | 941.2
893.8 kPa | 941.3
917.4 kPa | 941.2
938.8 kPa | 941.3
961.5 kPa | 941.3
984.8 kPa | 941.2
1008.1 kPa | 941.3
1031.5 kPa | 941.3
1061.2 kPa | 941.5
1083.6 kPa | 941.4
1098.2 kPa | 941.3
1114.7 kPa | 941.4
1128.5 kPa | 941.4
1142.9 kPa | 941.4
1159.9 kPa | 941.4
1174.6 kPa | 941.5
1189.9 kPa | 941.6
1208.5 kPa | 941.5
1224.5 kPa | 941.5
1241 kPa | 941.6
1261 kPa | 941.6
1278.5 kPa | 941.6
1296.2 kPa | 941.6
1314.1 kPa | 941.6
1336.3 kPa | 941.6
1355.4 kPa | 941.6
1375.4 kPa | 941.5
1441 kPa | 941.6
1467.4 kPa | 941.7
1489.7 kPa | 941.8
1512.2 kPa | 941.7
1535.7 kPa | 941.8
1564.1 kPa | 941.8
1588.8 kPa | 941.8
1613.6 kPa | 941.8
1644.5 kPa | 941.8
1671.3 kPa | 941.8
1699 kPa | 941.9
1727.1 kPa | 941.8
1762.2 kPa | 941.9
1792.2 kPa | 941.9
1821.9 kPa | 941.8
1847.4 kPa | 942
1859.8 kPa | 941.9
1867.2 kPa | 942
1876.6 kPa | 942
1884.6 kPa | 942.1
1892.9 kPa | 942
1901.2 kPa | 942
1911 kPa | 942.1
1919.1 kPa | 942
1927.8 kPa | 942.1
1937.7 kPa | 942.1
1946.9 kPa | 942.1
1955.4 kPa | 942.1
1964.1 kPa | 942.1
1974.3 kPa | 942.1
1983.3 kPa | 942.1
1992.2 kPa | 942
2001 kPa | 942.1
2012 kPa | 942.2
2021 kPa | 942.2
2030.2 kPa | 942.1
2040.9 kPa | 942.1
2050.5 kPa | 942.1
2059.8 kPa | 942.2
2069.4 kPa | 942.3
2079.3 kPa | 942.2
2090.4 kPa | 942.2
2099.8 kPa | 942.2
2111.2 kPa | 942.2
2121.3 kPa | 942.1
2130.8 kPa | 942.3
2142.6 kPa | 942.2
2152.5 kPa | 942.2
2162.2 kPa | 942.3
2172.5 kPa | 942.2
